This data set in a line: Stability in water at room temperature, LC-MS/MS peak areas over 16 h. The class given is physicochemical. Particulars: 5 μg/ml in water, timepoints 0, 2, 4, 6, 8 and 16 h. As for the experimental part:
The stability of native Piperacillin as well as its hydrolyzed forms was investigated (compounds 5, 9a and 9b, respectively. From the hydrolyzation pathway of Piperacillin (see schematic drawing in FIG. 1) it is obvious that this compound hydrolyzed both on the piperazin ring and the lactam moiety, only one of both compounds is monitored to account for the loss of native Piperacillin). To this end, these compounds were freshly weighed and dissolved in water at a concentration of 1 mg/mL by rolling for 15 minutes at room temperature. Subsequently, these compounds were diluted to 5 μg/ml and measured with a suitable LC-MS/MS method at timepoints 0, 2, 4, 6, 8 and 16 h. […] The peaks were integrated using MultiQuant software and the areas of these peaks depicted in the graphs in FIGS. 2A and 2B.
The stability of double butylamide variants of Piperacillin (compound 7, see FIG. 4) was investigated at 2 MRMs using the identical protocol as in Examples 1.

As to `CCN1CCN(C(=O)N[C@@H](C(=O)N[C@@H]2C(=O)N3[C@@H]2SC(C)(C)[C@@H]3C(=O)O)c2ccccc2)C(=O)C1=O` [Piperacillin], the “obtained peak-areas over time” value is given as “decreasing”.

Source of the values: US20220365099A1, “DERIVATIZATION OF BETA-LACTAM ANTIBIOTICS FOR MASSSPEC MEASUREMENTS IN PATIENT SAMPLES” (Roche Diagnostics Operations, Inc., priority 2019, published 2022).
